Article PMC5289826 (PLoS ONE, 2017)

Target: T1, recombinant human 11β-HSD1 (Homo sapiens, UniProt P28845)
T1 construct: expressed in transfected cells
Experiment: 11β-HSD1 enzyme activity in cell lysates (cortisone to cortisol, radiolabeled tracer, TLC)
Assay type: biochemical
Conditions: not given
Method: (§1) Human embryonic kidney (HEK-293) cells either stably expressing human 11β-HSD1 and H6PDH (HHH7 clone, [38]) or 11β-HSD2 (AT8 clone, [39]), or transiently expressing human 17β-HSD1 or 17β-HSD2, were cultivated in Dulbecco’s modified Eagle medium (DMEM) containing 4.5 g/L glucose, 10% fetal bovine serum, 100 U/mL penicillin, 0.1 mg/mL streptomycin, 1 × MEM nonessential amino acids, and 10 mM HEPES buffer, pH 7.4. Cells were washed with phosphate-buffered saline (PBS), centrifuged for 4 min at 150 × g, and the cell pellets were snap frozen on dry ice and stored at −80°C until further use.
(§2) Cell lysates were resuspended in TS2 buffer (100 mM NaCl, 1 mM EGTA, 1 mM EDTA, 1 mM MgCl2, 250 mM sucrose, 20 mM Tris-HCl, pH 7.4), followed by sonication at 4°C using a Hielscher UP50H ultrasonic processor (0.3 cycle, 20 amplitude %, 20 impulses; Hielscher Ultrasonics GmbH, Teltow Germany). Cell lysates, reaction mixture, and either vehicle (DMSO) or inhibitor were incubated for 10 min at 37°C in a final volume of 22.2 μL. The solvent concentration was 0.1%. […] 11β-HSD2 activity was measured in the presence of 50 nM cortisol and 500 μM NAD^+. An amount of 50 nCi of radiolabeled tracer substrate was included in the experiments. […] The bands of the corresponding steroids were excised, followed by scintillation counting and calculation of the amount of substrate conversion. Data were obtained from at least three independent measurements. Glycyrrhetinic acid (CTRL 1) was used as positive control for 11β-HSD1 and 11β-HSD2 inhibition, apigenin (CTRL 2) for 17β-HSD1, and compound 22 from Vuorinen et al. [40](CTRL 3) for 17β-HSD2 inhibition.

T1 sequence (P28845 whole entry): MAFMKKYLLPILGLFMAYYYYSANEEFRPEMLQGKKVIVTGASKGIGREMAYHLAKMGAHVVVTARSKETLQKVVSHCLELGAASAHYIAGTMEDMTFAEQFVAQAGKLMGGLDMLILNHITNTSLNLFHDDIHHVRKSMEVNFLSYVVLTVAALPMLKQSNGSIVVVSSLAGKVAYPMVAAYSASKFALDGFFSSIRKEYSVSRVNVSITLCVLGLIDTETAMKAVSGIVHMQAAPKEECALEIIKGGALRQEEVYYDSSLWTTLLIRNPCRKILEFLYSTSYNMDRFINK

SMILES	IC50
Cc1ccc(-c2cccc(C(=O)N3CCCCCC3)c2)cn1 [2e, Azepan-1-yl-(3-(6-methylpyridin-3-yl)phenyl)methanone]	46 nM
Cc1ccc(-c2cccc(C(=O)N3CCC(C)CC3)c2)cc1F [3b]	53.8 nM
CC1CCN(C(=O)c2cccc(-c3ccccc3Cl)c2)CC1 [6b, (2’-Chloro-[1,1’-biphenyl]-3-yl)(4-methylpiperidin-1-yl)methanone]	62.2 nM

Same assay, conditions: 100 nM compound; lysates of HEK-293 cells; 200 nM cortisone; mean of three experiments

SMILES	11β-HSD1 Residual activity, % of control at 100 nM
Cc1ccc(-c2cccc(C(=O)N3CC(C)OC(C)C3)c2)cc1F (centres unmarked) [3d, (2,6-Dimethylmorpholino)(3’-fluoro-4’-methyl-[1,1’-biphenyl]-3-yl)methanone]	44 % of control
CC1CCN(C(=O)c2cccc(-c3cccc(C(N)=O)c3)c2)CC1 [10b, 3’-(4-methylpiperidine-1-carbonyl)-[1,1’-biphenyl]-3-carboxamide]	89 % of control
CC1CCN(C(=O)c2cccc(-c3ccc(Cl)cc3)c2)CC1 [5b, (4’-Chloro-[1,1’-biphenyl]-3-yl)(4-methylpiperidin-1-yl)methanone]	58 % of control
NC(=O)[C@@H]1CCCN1C(=O)c1cccc(-c2ccccc2Cl)c1 [6f, (S)-1-(2’-Chloro-[1,1’-biphenyl]-3-carbonyl)-pyrrolidine-2-carboxamide]	> 90 % of control
Cc1ccc(-c2cccc(C(=O)N3CCCCCC3)c2)cn1 [2e, Azepan-1-yl-(3-(6-methylpyridin-3-yl)phenyl)methanone]	30 % of control
CC1CCN(C(=O)c2cccc(-c3ccc(F)cc3)c2)CC1 [4b, (4’-Fluoro-[1,1’-biphenyl]-3-yl)(4-methylpiperidin-1-yl)methanone]	43 % of control
Cc1ccc(-c2cccc(C(=O)N3CCCCCC3)c2)cc1C [11e, Azepan-1-yl(3’,4’-dimethyl-[1,1’-biphenyl]-3-yl)methanone]	69 % of control
Cc1ccc(-c2cccc(C(=O)N3CCC(C)CC3)c2)cc1F [3b]	44 % of control
CC1CCN(C(=O)c2cccc(-c3cccc(O)c3)c2)CC1 [8b, (3’-Hydroxy-[1,1’-biphenyl]-3-yl)(4-methylpiperidin-1-yl)methanone]	70 % of control
CC1CCN(C(=O)c2cccc(-c3ccccc3Cl)c2)CC1 [6b, (2’-Chloro-[1,1’-biphenyl]-3-yl)(4-methylpiperidin-1-yl)methanone]	49 % of control

Same assay, conditions: 1 μM compound; lysates of HEK-293 cells; 200 nM cortisone; mean of three experiments

SMILES	11β-HSD1 Residual activity, % of control at 1 μM
Cc1ccc(-c2cccc(C(=O)N3CC(C)OC(C)C3)c2)cc1F (centres unmarked) [3d, (2,6-Dimethylmorpholino)(3’-fluoro-4’-methyl-[1,1’-biphenyl]-3-yl)methanone]	4 % of control
CC1CCN(C(=O)c2cccc(-c3cccc(C(N)=O)c3)c2)CC1 [10b, 3’-(4-methylpiperidine-1-carbonyl)-[1,1’-biphenyl]-3-carboxamide]	34 % of control
CC1CCN(C(=O)c2cccc(-c3ccc(Cl)cc3)c2)CC1 [5b, (4’-Chloro-[1,1’-biphenyl]-3-yl)(4-methylpiperidin-1-yl)methanone]	3 % of control
NC(=O)[C@@H]1CCCN1C(=O)c1cccc(-c2ccccc2Cl)c1 [6f, (S)-1-(2’-Chloro-[1,1’-biphenyl]-3-carbonyl)-pyrrolidine-2-carboxamide]	> 90 % of control
CC1CCN(C(=O)c2cccc(-c3ccc(F)cc3)c2)CC1 [4b, (4’-Fluoro-[1,1’-biphenyl]-3-yl)(4-methylpiperidin-1-yl)methanone]	4 % of control
Cc1ccc(-c2cccc(C(=O)N3CCC(C)CC3)c2)cc1F [3b]	1 % of control
CC1CCN(C(=O)c2cccc(-c3cccc(O)c3)c2)CC1 [8b, (3’-Hydroxy-[1,1’-biphenyl]-3-yl)(4-methylpiperidin-1-yl)methanone]	8 % of control
CC1CCN(C(=O)c2cccc(-c3ccccc3Cl)c2)CC1 [6b, (2’-Chloro-[1,1’-biphenyl]-3-yl)(4-methylpiperidin-1-yl)methanone]	4 % of control

Same assay, conditions: at 1 μM; cell lysates

SMILES	activity towards 11β-HSD1 (in words)
NC(=O)[C@@H]1CCCN1C(=O)c1cccc(-c2ccccc2Cl)c1 [6f, (S)-1-(2’-Chloro-[1,1’-biphenyl]-3-carbonyl)-pyrrolidine-2-carboxamide]	inactive

Same assay, conditions: cell lysates; SAR comparison within the series

SMILES	activity towards 11β-HSD1, effect of substituent (in words)
CC1CCN(C(=O)c2cccc(-c3cccc(C(N)=O)c3)c2)CC1 [10b, 3’-(4-methylpiperidine-1-carbonyl)-[1,1’-biphenyl]-3-carboxamide]	substantial loss of activity
Cc1ccc(-c2cccc(C(=O)N3CCCCCC3)c2)cc1C [11e, Azepan-1-yl(3’,4’-dimethyl-[1,1’-biphenyl]-3-yl)methanone]	lower activity
CC1CCN(C(=O)c2cccc(-c3cccc(O)c3)c2)CC1 [8b, (3’-Hydroxy-[1,1’-biphenyl]-3-yl)(4-methylpiperidin-1-yl)methanone]	lower activity

System: T2, recombinant human 11β-HSD2
T2 construct: expressed in transfected cells
Experiment: 11β-HSD2 enzyme activity in cell lysates (cortisol to cortisone)
Assay type: biochemical
Conditions: 1 μM compound; lysates of HEK-293 cells; 50 nM cortisol
Method: as §1, §2

SMILES	11β-HSD2 Residual activity, % of control at 1 μM
Cc1ccc(-c2cccc(C(=O)N3CC(C)OC(C)C3)c2)cc1F (centres unmarked) [3d, (2,6-Dimethylmorpholino)(3’-fluoro-4’-methyl-[1,1’-biphenyl]-3-yl)methanone]	> 90 % of control
CC1CCN(C(=O)c2cccc(-c3cccc(C(N)=O)c3)c2)CC1 [10b, 3’-(4-methylpiperidine-1-carbonyl)-[1,1’-biphenyl]-3-carboxamide]	> 90 % of control
CC1CCN(C(=O)c2cccc(-c3ccc(Cl)cc3)c2)CC1 [5b, (4’-Chloro-[1,1’-biphenyl]-3-yl)(4-methylpiperidin-1-yl)methanone]	> 90 % of control
NC(=O)[C@@H]1CCCN1C(=O)c1cccc(-c2ccccc2Cl)c1 [6f, (S)-1-(2’-Chloro-[1,1’-biphenyl]-3-carbonyl)-pyrrolidine-2-carboxamide]	> 90 % of control
Cc1ccc(-c2cccc(C(=O)N3CCCCCC3)c2)cn1 [2e, Azepan-1-yl-(3-(6-methylpyridin-3-yl)phenyl)methanone]	> 90 % of control
CC1CCN(C(=O)c2cccc(-c3ccc(F)cc3)c2)CC1 [4b, (4’-Fluoro-[1,1’-biphenyl]-3-yl)(4-methylpiperidin-1-yl)methanone]	> 90 % of control
Cc1ccc(-c2cccc(C(=O)N3CCCCCC3)c2)cc1C [11e, Azepan-1-yl(3’,4’-dimethyl-[1,1’-biphenyl]-3-yl)methanone]	> 90 % of control
Cc1ccc(-c2cccc(C(=O)N3CCC(C)CC3)c2)cc1F [3b]	> 90 % of control
CC1CCN(C(=O)c2cccc(-c3cccc(O)c3)c2)CC1 [8b, (3’-Hydroxy-[1,1’-biphenyl]-3-yl)(4-methylpiperidin-1-yl)methanone]	> 90 % of control
CC1CCN(C(=O)c2cccc(-c3ccccc3Cl)c2)CC1 [6b, (2’-Chloro-[1,1’-biphenyl]-3-yl)(4-methylpiperidin-1-yl)methanone]	> 90 % of control
